Common to all, as to assay: biochemical
Common to all, as to set-up: KINOMEscan active-site competition binding panel (468 kinase assays), per cent of control at 1000 nM
What all share (settings): KINOMEscan per cent of control (binding competition); read-out: Percent Control

Assay [1] addresses MAP3K4 (Homo sapiens, UniProt Q9Y6R4). An excerpt:
(§1) Figure S7 / Percent Control

The target of assay [2] is MET(Y1235D) (Homo sapiens, UniProt P08581, Y1235D).
Description: as §1

Assay [3] deals with MAPKAPK5 (Homo sapiens, UniProt Q8IW41).
Sequence of MAPKAPK5 (Q8IW41 whole entry): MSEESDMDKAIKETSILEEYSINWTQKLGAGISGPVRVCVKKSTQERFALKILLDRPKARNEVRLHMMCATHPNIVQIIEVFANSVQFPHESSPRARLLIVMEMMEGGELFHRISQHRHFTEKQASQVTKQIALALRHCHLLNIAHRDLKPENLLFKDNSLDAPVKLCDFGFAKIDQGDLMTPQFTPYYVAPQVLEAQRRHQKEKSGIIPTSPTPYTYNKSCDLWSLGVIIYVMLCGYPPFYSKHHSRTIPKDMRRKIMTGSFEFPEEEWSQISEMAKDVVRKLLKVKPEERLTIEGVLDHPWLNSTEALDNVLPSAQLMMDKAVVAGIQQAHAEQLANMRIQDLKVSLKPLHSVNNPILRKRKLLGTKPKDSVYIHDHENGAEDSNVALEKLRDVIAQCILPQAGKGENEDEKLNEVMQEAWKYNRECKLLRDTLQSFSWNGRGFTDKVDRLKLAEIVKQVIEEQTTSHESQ
Description: as §1

In assay [4] the target is SBK1 (Homo sapiens, UniProt Q52WX2).
Description: as §1

Assay [5] deals with T1, AMPK-alpha2 (Homo sapiens, UniProt P54646).
T1 construct: gene PRKAA2
Description: as §1

The target in assay [6] is MAP3K15 (Homo sapiens, UniProt Q6ZN16).
Description: as §1

In assay [7] the target is CDK2 (Homo sapiens, UniProt P24941).
Description: as §1

For assay [8], the target named is T2, JNK3 (Homo sapiens, UniProt P53779).
T2 construct: gene MAPK10
Description: as §1

Assay [9] has as its target KIT(A829P) (Homo sapiens, UniProt P10721, A829P).
Description: as §1

For assay [10], the target named is T3, NDR2 (Homo sapiens, UniProt Q9Y2H1).
T3 construct: gene STK38L
Description: as §1

Assay [11] deals with ERN1 (Homo sapiens, UniProt O75460).
Description: as §1

In assay [12] the target is EPHA2 (Homo sapiens, UniProt P29317).
Sequence of EPHA2 (P29317 whole entry): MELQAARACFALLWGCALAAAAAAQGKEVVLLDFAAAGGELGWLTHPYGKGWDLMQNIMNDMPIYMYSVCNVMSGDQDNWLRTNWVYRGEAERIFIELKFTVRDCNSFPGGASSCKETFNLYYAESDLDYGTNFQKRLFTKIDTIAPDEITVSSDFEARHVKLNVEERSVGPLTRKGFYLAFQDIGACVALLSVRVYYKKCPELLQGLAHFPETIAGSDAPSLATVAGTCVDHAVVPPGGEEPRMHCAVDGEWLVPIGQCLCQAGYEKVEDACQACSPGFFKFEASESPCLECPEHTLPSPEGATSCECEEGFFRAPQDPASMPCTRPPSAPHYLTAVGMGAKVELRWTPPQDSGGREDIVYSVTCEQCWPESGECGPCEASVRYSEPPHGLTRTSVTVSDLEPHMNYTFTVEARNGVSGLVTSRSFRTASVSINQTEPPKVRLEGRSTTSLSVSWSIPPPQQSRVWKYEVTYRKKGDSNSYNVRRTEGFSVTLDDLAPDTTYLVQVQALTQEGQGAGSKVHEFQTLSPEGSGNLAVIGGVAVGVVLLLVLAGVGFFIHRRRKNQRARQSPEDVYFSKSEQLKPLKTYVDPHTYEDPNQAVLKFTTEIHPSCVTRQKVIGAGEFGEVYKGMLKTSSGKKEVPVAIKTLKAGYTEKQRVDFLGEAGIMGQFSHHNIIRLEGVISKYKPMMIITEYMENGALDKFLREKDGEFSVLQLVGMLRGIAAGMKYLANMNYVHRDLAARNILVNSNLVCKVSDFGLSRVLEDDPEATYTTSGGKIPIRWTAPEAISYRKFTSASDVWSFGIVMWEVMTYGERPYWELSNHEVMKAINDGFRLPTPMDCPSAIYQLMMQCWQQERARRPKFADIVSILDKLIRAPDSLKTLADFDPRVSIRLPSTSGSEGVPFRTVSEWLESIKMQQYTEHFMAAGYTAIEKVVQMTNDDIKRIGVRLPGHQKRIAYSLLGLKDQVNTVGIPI
Description: as §1

In assay [13] the target is PRKG2 (Homo sapiens, UniProt Q13237).
Description: as §1

Assay [14] concerns the target AKT1 (Homo sapiens, UniProt P31749).
Description: as §1

Assay [15] deals with T4, QSK (Homo sapiens, UniProt Q9Y2K2).
T4 construct: gene SIK3
Description: as §1

The target in assay [16] is T5, MEK2 (Homo sapiens, UniProt P36507).
T5 construct: gene MAP2K2
T5 sequence (P36507 whole entry): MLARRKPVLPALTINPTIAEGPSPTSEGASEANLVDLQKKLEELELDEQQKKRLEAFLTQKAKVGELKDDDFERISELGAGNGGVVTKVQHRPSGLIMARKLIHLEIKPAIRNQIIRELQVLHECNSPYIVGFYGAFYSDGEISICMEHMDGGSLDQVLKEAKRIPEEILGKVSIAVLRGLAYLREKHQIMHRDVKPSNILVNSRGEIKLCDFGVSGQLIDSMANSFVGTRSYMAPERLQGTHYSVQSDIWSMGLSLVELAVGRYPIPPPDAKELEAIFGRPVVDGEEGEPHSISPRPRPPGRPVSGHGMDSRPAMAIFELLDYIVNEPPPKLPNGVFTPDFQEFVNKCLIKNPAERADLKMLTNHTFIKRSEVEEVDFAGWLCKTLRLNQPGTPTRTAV
Description: as §1

Assay [17] deals with FGFR1 (Homo sapiens, UniProt P11362).
Description: as §1

The target in assay [18] is T6, AMPK-alpha1 (Homo sapiens, UniProt Q13131).
T6 construct: gene PRKAA1
T6 sequence (Q13131 whole entry): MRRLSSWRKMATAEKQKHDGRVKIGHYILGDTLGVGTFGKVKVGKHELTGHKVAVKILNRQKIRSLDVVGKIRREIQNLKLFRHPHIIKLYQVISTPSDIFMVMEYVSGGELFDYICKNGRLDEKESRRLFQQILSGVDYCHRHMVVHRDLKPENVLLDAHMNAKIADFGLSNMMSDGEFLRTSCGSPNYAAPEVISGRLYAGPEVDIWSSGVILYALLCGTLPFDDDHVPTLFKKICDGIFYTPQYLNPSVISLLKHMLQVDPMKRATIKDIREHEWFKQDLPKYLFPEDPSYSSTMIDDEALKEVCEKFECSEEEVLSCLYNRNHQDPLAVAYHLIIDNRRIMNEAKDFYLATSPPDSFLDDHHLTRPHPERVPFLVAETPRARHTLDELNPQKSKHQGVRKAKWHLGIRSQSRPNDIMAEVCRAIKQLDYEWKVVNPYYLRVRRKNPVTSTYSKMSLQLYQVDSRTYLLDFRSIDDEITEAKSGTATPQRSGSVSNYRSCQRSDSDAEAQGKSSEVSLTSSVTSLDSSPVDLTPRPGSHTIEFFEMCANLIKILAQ
Description: as §1

Assay [19] has as its target T7, NIM1 (Homo sapiens, UniProt Q8IY84).
T7 construct: gene NIM1K
Description: as §1

Assay [20] has as its target DAPK2 (Homo sapiens, UniProt Q9UIK4).
Description: as §1

Assay [21] concerns the target T8, ABL1(T315I)-nonphosphorylated (Homo sapiens, UniProt P00519, T315I).
T8 construct: nonphosphorylated
Description: as §1

For assay [22], the target named is CSK (Homo sapiens, UniProt P41240).
Description: as §1

Assay [23] deals with EGFR(G719C) (Homo sapiens, UniProt P00533, G719C).
Sequence of EGFR(G719C) (P00533 whole entry G719C): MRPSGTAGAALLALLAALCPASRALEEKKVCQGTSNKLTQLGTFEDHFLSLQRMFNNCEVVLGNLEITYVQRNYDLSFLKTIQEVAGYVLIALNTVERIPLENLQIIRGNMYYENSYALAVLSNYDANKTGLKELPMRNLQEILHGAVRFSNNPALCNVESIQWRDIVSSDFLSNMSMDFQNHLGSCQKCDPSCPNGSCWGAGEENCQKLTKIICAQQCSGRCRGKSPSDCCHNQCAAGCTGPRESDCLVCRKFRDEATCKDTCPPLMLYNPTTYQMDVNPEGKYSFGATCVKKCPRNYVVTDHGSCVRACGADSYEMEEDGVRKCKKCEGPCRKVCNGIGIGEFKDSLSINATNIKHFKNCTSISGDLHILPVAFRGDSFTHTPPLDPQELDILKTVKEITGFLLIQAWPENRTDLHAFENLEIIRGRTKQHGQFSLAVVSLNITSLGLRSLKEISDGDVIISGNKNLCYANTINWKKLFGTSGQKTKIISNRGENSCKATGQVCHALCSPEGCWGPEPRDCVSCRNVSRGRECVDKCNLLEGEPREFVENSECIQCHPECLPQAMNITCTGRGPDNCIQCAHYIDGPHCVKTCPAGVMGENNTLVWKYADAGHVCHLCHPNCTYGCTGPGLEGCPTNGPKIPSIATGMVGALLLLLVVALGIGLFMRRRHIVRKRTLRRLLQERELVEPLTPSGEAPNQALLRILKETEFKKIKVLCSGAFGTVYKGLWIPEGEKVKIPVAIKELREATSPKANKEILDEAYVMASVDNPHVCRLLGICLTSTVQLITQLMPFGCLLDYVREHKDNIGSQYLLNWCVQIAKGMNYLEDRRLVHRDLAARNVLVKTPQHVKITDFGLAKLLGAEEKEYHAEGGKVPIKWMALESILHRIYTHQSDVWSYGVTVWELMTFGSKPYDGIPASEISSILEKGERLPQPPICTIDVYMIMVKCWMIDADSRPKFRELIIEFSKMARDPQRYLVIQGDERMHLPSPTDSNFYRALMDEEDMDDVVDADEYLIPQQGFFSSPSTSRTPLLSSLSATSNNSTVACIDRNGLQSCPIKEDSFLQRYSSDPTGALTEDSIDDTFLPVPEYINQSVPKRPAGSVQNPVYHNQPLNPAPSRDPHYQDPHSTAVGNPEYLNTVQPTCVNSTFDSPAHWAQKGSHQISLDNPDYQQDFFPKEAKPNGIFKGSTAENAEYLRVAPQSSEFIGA
Description: as §1

The target of assay [24] is RET(V804L) (Homo sapiens, UniProt P07949, V804L).
Description: as §1

The text below walks through data of article PMC10924921, “Mi-2β promotes immune evasion in melanoma by activating EZH2 methylation” (Nature Communications, 2024).

Each structure is given as a SMILES string.

Sequence of DAPK2 (Q9UIK4 whole entry): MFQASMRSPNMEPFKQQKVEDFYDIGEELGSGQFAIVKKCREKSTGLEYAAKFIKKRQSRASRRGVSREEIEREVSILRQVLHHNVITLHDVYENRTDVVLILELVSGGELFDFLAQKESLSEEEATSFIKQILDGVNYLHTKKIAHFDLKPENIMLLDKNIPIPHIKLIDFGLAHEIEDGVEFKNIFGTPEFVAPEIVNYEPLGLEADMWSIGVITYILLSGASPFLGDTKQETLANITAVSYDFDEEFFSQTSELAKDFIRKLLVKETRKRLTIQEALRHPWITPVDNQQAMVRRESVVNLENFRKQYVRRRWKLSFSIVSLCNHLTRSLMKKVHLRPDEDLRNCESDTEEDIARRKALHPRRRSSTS
Sequence of KIT(A829P) (P10721 whole entry A829P): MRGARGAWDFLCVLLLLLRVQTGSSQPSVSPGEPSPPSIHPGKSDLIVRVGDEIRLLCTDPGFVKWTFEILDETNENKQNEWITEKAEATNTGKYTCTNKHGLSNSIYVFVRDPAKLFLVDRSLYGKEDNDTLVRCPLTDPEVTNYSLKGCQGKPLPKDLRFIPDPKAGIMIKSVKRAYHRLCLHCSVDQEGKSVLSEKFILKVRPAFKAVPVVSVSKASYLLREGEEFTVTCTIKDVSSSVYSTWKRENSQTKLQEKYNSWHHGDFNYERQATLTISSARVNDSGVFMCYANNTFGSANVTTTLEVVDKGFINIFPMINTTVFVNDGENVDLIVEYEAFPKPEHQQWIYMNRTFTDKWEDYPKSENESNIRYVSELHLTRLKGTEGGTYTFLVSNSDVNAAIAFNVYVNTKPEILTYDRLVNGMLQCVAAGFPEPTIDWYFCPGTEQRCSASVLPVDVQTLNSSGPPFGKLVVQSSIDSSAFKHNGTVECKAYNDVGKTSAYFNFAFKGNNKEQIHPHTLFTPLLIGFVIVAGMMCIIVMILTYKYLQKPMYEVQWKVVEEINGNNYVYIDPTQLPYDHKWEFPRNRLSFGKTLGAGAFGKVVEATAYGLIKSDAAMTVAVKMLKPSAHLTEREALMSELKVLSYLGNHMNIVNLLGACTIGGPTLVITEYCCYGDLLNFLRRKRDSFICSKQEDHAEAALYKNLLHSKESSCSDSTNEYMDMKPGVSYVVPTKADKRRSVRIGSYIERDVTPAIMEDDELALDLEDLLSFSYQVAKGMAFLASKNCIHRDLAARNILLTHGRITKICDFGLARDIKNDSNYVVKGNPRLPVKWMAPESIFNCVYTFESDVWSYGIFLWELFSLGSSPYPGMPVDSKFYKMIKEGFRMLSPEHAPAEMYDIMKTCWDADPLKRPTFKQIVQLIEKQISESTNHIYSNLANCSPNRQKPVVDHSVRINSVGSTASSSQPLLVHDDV

As to `Cn1c(=O)[nH]c2ccc(-c3cccc(C(=O)NC4CCn5ccnc5C4)c3)cc21` (stereo not drawn) [Z36-MP5], the remaining binding at 1 µM amounted to 63% in assay [1]; 93% in assay [2]; 63% in [3]; 74% in [4]; 93% in assay [5]; 52% in [6]. The remaining binding at 1 µM amounted to 91% in assay [7]; 100% in [8]; 78% in assay [9]; 74% in [10]; 49% in assay [11]; 88% in assay [12]. In addition, the remaining binding at 1 µM is 88% in [13]; 95% in assay [14]; 63% in assay [15]; 58% in [16]; 55% in assay [17]; 92% in assay [18]. Besides, the remaining binding at 1 µM in assay [19] is 72%; in assay [20], 93%; in assay [21], 56%; in assay [22], 98%; in assay [23], 79%; in assay [24], 75%.
